Assay [1] addresses Protein cereblon/Eukaryotic peptide chain release factor GTP-binding subunit ERF3A (Homo sapiens) (UniProt Q96SW2+P15170). In words: Induction of cereblon-mediated GSPT1 degradation in human DF15 cells expressing ePL-tagged GSPT1 at 0.0005 to 10 uM after 4 hrs by luminometric analysis. The class given is cell-based.
For assay [2], the target named is Cereblon/Casein kinase I alpha (Homo sapiens) (UniProt P48729+Q96SW2). In words: Induction of cereblon-mediated CK1alpha (unknown origin) degradation in at 0.0005 to 10 uM after 4 hrs by cell-based chemiluminescent assay.

Activity calls are given as the source filed them. No cut-off for these calls is given here.

Sequence of Cereblon/Casein kinase I alpha (Homo sapiens) (P48729 2-337 limits assumed): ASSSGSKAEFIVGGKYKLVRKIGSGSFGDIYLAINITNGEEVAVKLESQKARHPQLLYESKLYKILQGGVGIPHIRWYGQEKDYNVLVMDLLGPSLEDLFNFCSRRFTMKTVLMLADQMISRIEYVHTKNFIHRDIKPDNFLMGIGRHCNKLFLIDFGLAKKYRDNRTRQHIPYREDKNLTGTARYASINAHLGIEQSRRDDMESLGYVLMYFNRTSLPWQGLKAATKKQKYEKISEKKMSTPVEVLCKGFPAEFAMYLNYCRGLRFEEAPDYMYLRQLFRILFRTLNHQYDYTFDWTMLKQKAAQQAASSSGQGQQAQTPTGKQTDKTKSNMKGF
Sequence of Cereblon/Casein kinase I alpha (Homo sapiens) (Q96SW2 whole entry partner): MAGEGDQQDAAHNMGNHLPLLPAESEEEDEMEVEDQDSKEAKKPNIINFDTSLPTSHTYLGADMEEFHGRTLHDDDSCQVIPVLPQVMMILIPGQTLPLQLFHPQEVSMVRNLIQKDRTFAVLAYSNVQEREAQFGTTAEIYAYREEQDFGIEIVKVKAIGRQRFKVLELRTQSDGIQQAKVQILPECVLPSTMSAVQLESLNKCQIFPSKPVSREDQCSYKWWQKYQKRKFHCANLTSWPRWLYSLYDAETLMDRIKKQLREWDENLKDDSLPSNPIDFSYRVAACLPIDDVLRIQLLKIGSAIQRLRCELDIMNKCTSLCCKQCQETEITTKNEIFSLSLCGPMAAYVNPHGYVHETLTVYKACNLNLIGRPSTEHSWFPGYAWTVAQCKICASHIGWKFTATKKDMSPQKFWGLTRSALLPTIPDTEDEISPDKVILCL
Sequence of Protein cereblon/Eukaryotic peptide chain release factor GTP-binding subunit ERF3A (Homo sapiens) (P15170 whole entry, looked up): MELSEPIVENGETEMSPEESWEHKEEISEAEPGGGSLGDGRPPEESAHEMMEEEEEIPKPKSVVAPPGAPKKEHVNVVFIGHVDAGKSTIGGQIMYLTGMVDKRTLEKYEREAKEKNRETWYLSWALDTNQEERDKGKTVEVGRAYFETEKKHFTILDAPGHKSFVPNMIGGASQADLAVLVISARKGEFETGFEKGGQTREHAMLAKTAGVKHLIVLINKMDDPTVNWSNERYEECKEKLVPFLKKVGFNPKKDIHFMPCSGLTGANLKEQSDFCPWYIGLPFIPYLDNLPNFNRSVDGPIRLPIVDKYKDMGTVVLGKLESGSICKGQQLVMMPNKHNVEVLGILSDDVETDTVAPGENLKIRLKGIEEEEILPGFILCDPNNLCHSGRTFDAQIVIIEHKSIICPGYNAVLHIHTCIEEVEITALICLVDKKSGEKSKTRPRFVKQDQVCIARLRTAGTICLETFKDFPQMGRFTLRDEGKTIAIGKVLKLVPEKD
Sequence of Protein cereblon/Eukaryotic peptide chain release factor GTP-binding subunit ERF3A (Homo sapiens) (Q96SW2 whole entry, looked up): as the sequence (Q96SW2 whole entry partner) above

For the compound `O=C1CC[C@H](N2Cc3c(OCc4ccc(CN5CCOCC5)cc4)cccc3C2=O)C(=O)N1`, the outcome in assay [1] and in assay [2] was inactive.

(Values after ChEMBL document CHEMBL4219026, “A Cereblon Modulator (CC-220) with Improved Degradation of Ikaros and Aiolos” (J Med Chem, 2018).)
